Experimental data taken from US5807885A, “Amidine derivatives with nitric oxide synthetase activities” (priority 1996, dated 1998).

Experiments:
[1] = molecular target: T1, neuronal nitric oxide synthetase (Rattus norvegicus, UniProt P29476); assay: Screen A: screen for neuronal nitric oxide synthetase inhibitory activity; type: biochemical; conditions: for IC50: neuronal isoform, rat hippocampus or cerebellum supernatant, read-out: IC50 (concentration of drug substance which gives 50% enzyme inhibition in the assay)
T1 construct: Enzyme was isolated from rat hippocampus or cerebellum; from tissue; host or cells: cerebellum or hippocampus of male Sprague-Dawley rat, 20,000 g supernatant
T1 sequence (P29476 whole entry, canonical isoform): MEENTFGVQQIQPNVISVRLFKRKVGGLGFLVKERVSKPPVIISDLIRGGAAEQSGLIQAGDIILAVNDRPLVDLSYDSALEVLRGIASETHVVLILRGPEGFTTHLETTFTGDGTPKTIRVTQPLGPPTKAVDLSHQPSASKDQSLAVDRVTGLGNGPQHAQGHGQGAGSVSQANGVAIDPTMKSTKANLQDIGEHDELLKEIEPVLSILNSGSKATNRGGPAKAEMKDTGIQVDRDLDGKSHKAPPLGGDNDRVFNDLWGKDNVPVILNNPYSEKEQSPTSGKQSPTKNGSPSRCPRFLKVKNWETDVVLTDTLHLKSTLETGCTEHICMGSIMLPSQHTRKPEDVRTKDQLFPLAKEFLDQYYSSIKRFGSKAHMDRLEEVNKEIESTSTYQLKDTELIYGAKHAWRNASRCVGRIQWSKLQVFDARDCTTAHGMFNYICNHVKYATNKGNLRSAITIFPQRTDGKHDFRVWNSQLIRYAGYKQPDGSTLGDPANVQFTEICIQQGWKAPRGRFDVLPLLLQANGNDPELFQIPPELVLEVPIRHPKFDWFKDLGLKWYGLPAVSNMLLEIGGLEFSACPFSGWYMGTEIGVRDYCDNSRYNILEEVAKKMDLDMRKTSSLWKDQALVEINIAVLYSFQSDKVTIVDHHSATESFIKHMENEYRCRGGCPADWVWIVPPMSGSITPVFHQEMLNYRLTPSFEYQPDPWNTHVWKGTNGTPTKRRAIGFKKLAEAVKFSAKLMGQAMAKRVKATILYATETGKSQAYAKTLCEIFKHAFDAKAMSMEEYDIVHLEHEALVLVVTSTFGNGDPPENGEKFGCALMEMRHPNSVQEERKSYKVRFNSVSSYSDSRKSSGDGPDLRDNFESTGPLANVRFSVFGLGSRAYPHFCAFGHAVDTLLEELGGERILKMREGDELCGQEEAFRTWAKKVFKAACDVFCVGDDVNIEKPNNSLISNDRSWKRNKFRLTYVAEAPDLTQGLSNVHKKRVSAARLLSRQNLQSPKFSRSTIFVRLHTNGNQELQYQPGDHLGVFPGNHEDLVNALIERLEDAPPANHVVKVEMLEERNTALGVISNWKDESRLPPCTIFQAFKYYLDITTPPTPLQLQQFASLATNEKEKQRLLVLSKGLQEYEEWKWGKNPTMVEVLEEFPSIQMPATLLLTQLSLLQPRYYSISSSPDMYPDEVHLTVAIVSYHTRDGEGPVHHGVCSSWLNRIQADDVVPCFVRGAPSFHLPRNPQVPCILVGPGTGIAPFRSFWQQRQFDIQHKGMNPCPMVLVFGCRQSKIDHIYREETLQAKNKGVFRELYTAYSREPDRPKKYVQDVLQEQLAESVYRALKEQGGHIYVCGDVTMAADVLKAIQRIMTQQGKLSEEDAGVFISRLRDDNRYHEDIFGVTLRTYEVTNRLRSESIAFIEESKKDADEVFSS

[2] = molecular target: T2, endothelial nitric oxide synthetase (Homo sapiens, UniProt P29474); assay: Screen C: screen for endothelial nitric oxide synthetase inhibitory activity; type: biochemical
T2 construct: Enzyme may be isolated from human umbilical vein endothelial cells (HUVECs); host or cells: human umbilical vein endothelial cells (HUVECs)
T2 sequence (P29474 2-1203): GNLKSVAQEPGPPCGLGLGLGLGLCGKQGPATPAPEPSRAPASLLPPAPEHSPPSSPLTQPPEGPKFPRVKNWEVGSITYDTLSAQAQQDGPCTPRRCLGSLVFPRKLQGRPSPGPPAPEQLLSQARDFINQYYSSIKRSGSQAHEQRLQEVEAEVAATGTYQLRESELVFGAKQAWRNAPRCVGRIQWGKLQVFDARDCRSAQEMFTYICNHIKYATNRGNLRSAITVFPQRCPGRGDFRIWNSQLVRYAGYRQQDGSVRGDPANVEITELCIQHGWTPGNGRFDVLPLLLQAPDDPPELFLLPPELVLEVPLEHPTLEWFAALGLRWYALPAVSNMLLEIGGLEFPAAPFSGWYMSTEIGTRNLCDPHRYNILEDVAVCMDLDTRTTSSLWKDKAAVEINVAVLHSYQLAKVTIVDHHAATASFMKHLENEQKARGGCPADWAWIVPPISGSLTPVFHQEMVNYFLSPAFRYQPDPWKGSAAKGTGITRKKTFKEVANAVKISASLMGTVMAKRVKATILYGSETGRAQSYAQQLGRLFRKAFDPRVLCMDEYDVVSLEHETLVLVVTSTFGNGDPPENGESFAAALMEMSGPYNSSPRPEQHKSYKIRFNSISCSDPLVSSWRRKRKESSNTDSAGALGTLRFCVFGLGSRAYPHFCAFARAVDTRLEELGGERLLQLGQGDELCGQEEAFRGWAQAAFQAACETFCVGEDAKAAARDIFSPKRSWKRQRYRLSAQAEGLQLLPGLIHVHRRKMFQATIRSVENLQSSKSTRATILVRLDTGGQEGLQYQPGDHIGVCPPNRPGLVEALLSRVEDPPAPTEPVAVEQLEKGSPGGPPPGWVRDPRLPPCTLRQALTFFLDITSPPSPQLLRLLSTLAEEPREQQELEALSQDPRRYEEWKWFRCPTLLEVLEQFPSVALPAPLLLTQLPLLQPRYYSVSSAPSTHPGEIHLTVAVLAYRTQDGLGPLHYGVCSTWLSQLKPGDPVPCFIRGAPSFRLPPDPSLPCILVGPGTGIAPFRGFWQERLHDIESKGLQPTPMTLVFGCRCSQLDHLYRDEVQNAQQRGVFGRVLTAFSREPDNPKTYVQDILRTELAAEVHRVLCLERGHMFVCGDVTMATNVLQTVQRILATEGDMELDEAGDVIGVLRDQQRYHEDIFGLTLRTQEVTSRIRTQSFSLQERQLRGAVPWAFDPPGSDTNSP

[3] = molecular target: T3, macrophage nitric oxide synthetase (Mus musculus, UniProt P29477); assay: Screen B: screen for macrophage nitric oxide synthetase activity; type: biochemical, murine; conditions: macrophage isoform (Screen B) versus neuronal isoform (Screen A)
T3 construct: Nitric oxide synthetase is produced by cells in response to interferon-γ (IFNγ) and lipopolysaccharide (LPS); endogenous in cells; host or cells: murine macrophage cell line J774A-1, induced with IFN-gamma and LPS (cell line from Imperial Cancer Research Fund)
Description: The enzyme nitric oxide synthetase has a number of isoforms and compounds of formula I, or pharmaceutically acceptable salts thereof, may be screened for nitric oxide synthetase inhibitory activity by procedures based on those of Bredt and Snyder in Proc. Natl. Acad. Sci (1990) 87, 682-685 and Forstermann et. al. (1992) Eur. J. Pharm. 225,161-165 as follows. Nitric axide synthetase converts ^3 H-L-arginine to ^3 H-L-citrulline which can be separated by cation exchange chromatography and quantified by liquid scintillation counting.
(B) Screen for macrophage nitric oxide synthetase activity
Enzyme is prepared; after induction, from the cultured murine macrophage cell line J774A-1 (obtained from laboratories of the Imperial Cancer Research Fund). J774A-1 cells are cultured in Dulbecco's Modified Eagles Medium (DMEM) supplemented with 10% foetal bovine serum, 4 mM L-glutamine and antibiotics (100 units/ml penicillin G, 100 μg/ml streptomycin & 0.25 μg/m amphotericin B). Cells are routinely grown in […] flasks containing 35 ml medium kept at 37° C. and in a humidified atmosphere containing 5% CO2.
Nitric oxide synthetase is produced by cells in response to interferon-γ (IFNγ) and lipopolysaccharide (LPS). […]
Labelled L-citrulline is separated from labelled L-arginine using Dowex AG-50W. […] After allowing the samples to dry the L-citrulline is quantified by scintillation counting. […]

| IC50 [1] [µM] | Structure (SMILES) | also measured |
| --- | --- | --- |
| < 10 | N=C(Nc1ccc(CCCC(=O)N2CCOCC2)cc1)c1cccs1 [27(a), N-(4-(3-((4-morpholinyl)carbonyl)propyl)phenyl)-2-thiophenecarboximidamide] | – |
| < 10 | NC(=Nc1ccc(CCNCc2ccccc2)cc1)c1cccs1 [Example 1, N-(4-(2-((phenylmethyl)amino)ethyl)phenyl)-2-thiophenecarboximidamide] | IC50 in Screen C relative to IC50 in Screen A ([2]; endothelial isoform (Screen C) versus neuronal isoform (Screen A)): more than 10 times; IC50 in Screen B relative to IC50 in Screen A [3]: more than 10 times |
| < 10 | N=C(Nc1ccc(C(=O)Nc2ccccc2)cc1)c1cccs1 [Example 27(b), N-(4-((phenylamino)carbonyl)phenyl)-2-thiophenecarboximidamide] | – |
| < 100 | NC(=Nc1ccc(NC(=O)N(c2ccccc2)c2ccccc2)cc1)c1cccs1 [Example 48, N-[4-(((Diphenylamino)carbonyl)amino)phenyl]-2-thiophenecarboxamidine] | – |
| – | CN(CCc1ccc(NC(=N)C(F)(F)F)cc1)Cc1ccccc1 [Example 72, N-(4-(2-((phenylmethyl)(methyl)amino)ethyl)phenyl)trifluoroacetimidamide] | inhibition at 10 µM ([1]; at 10 μM): 17% |
| – | NC(=N[N+](=O)[O-])NCCC[C@H](N)C(=O)O [N-nitro-L-arginine, reference compound] | inhibition at 1 µM ([2]; Screen C, at a concentration of 1 μM, HUVEC enzyme, read-out: inhibition of nitric oxide synthetase (reference standard)): 70 to 90% |
